{"source": "patent US4584186A", "about": "“Radiolabelled metallocene derivatives” (Mallinckrodt, Diagnostica (Holland) B.V., priority 1982, dated 1986)", "key": {"[1]": {"conditions": "rat, in vivo; cited from earlier work"}, "[2]": {"assay": "urinary excretion and organ distribution in mice with increasing doses of inactive carrier", "conditions": "inactive carrier for labelled ruthenocenoylglycine"}, "[3]": {"conditions": "rabbit, in vivo"}, "[4]": {"assay": "renal clearance after administration to dogs (single injection method)", "format": "in vivo, dog (beagle)", "conditions": "for clearance in words: dog; for clearance: intravenous", "procedure": "The renal clearance by tubular excretion is a measure for the renal function was determined in two dogs, viz. beagles with body weights of 13.8 kg (dog a) and 14.8 kg (dog b) respectively by the generally recognized single injection method, in broad outline as described in Example VII. As radioactive materials were used iodine-131 labelled o-iodohippuric acid sodium salt (I-131 Hippuran), indium-111 DTPA (diethylene triamine pentaacetic acid) and ruthenium-97 labelled ruthenocenoylglycine. Indium-111DTP is also recommended to be used in radiodiagnostic compositions for examination of the renal glomerular filtration function. The time intervals between the various administrations were chosen in such a way, that no interference between the radioactive materials could occur. The radioactive materials were administered intraveneously, blood samples were collected 5, 10, 15, 30, 60 and 90 minutes after administration. The emitted radioactivity was determined with a gamma camera. The decreasing radioactivity of the successive blood samples is a measure for the elimination of the radioactive compound from the blood."}, "[5]": {"assay": "organ distribution of radioactivity in mouse", "conditions": "approx. 0.5 umole/kg"}}, "note": "Structures can show the parent of a compound that is named as a salt."}
{"compound": "[Ru+2].c1cc[cH-]c1.c1cc[cH-]c1", "note": "[ruthenium-103 labelled ruthenocene, ruthenocene]", "values": [{"measurement": "accumulation of radioactivity in lung and liver relative to kidney", "setting": "[1]", "result": "at least equal amounts as in the kidney"}]}
{"compound": "O=C(O)CNC(=O)c1ccccc1I", "note": "[ortho-iodohippuric acid (salt), ortho-iodohippuric acid]", "values": [{"measurement": "results when used as inactive carrier instead of ruthenocenoyl- or ferrocenoylglycine", "setting": "[2]", "result": "Comparable results"}]}
{"compound": "Nc1ccc(C(=O)NCC(=O)O)cc1", "note": "[para-aminohippuric acid (salt), para-aminohippuric acid]", "values": [{"measurement": "results when used as inactive carrier instead of ruthenocenoyl- or ferrocenoylglycine", "setting": "[2]", "result": "Comparable results"}]}
{"compound": "O=C(O)CNC(=O)[c-]1cccc1.[Ru+2].c1cc[cH-]c1", "note": "[Rc glycine, ruthenocenoylglycine, labelled with ruthenium-103]", "values": [{"measurement": "accumulation in the kidneys and excretion", "setting": "[3]", "result": "very rapid accumulation in the kidneys followed by a rapid excretion"}, {"measurement": "renal clearance (general statement)", "setting": "[3]", "result": "even faster than that of iodohippuric acid sodium salt labelled with iodine-125"}, {"measurement": "renal clearance compared with iodine-125 labelled o-iodohippuric acid sodium salt", "setting": "[3]", "result": "cleared more rapidly than iodine-125 labelled o-iodohippuric acid sodium salt"}]}
{"compound": "NC(=O)[c-]1cccc1.[Ru+2].c1cc[cH-]c1", "note": "[ruthenocene monocarboxylic acid amide]", "values": [{"measurement": "accumulation of radioactivity in lung and liver relative to kidney", "setting": "[1]", "result": "at least equal amounts as in the kidney"}]}
{"compound": "O=C(O)CNC(=O)[c-]1cccc1.[Ru+2].c1cc[cH-]c1", "note": "[Ru-97 ruthenocenoylglycine, ruthenium-97 labelled ruthenocenoylglycine]", "values": [{"measurement": "clearance in words", "setting": "[4]; in vivo", "result": "faster than that of labelled o-iodohippuric acid salt"}]}
{"compound": "O=C(O)CNC(=O)[c-]1cccc1.O=C(O)CNC(=O)[c-]1cccc1.[Ru+2]", "note": "[ruthenocenoyl-1,1'-diglycine]", "values": [{"measurement": "accumulation in the kidneys and excretion", "setting": "[3]", "result": "very rapid accumulation in the kidneys followed by a rapid excretion"}]}
{"compound": "indium-111 DTPA (diethylene triamine pentaacetic acid) [In - 111 DTPA]", "values": [{"measurement": "clearance", "setting": "[4]; dog a, beagle 13.8 kg", "result": 79.6, "unit": "mL/min"}, {"measurement": "clearance", "setting": "[4]; dog b, beagle 14.8 kg", "result": 62.2, "unit": "mL/min"}, {"measurement": "clearance in words", "setting": "[4]; comparison of the three radioactive compounds", "result": "comparatively slow"}]}
{"compound": "CCOC(=O)CNC(=O)[c-]1cccc1.[Ru+2].c1cc[cH-]c1", "note": "[Rc glycine ester, ruthenocenoyl ethylglycinate, labelled with ruthenium-103]", "values": [{"measurement": "103Ru conc. kidney", "setting": "[5]; after 1 hour", "result": 141, "unit": "dose/% body/wt"}, {"measurement": "103Ru conc. kidney", "setting": "[5]; after 3 hours", "result": 90, "unit": "dose/% body/wt"}, {"measurement": "103Ru conc. kidney", "setting": "[5]; after 6 hours", "result": 125, "unit": "dose/% body/wt"}, {"measurement": "103Ru conc. liver", "setting": "[5]; after 1 hour", "result": 43, "unit": "dose/% body/wt"}, {"measurement": "103Ru conc. liver", "setting": "[5]; after 3 hours", "result": 24, "unit": "dose/% body/wt"}, {"measurement": "103Ru conc. liver", "setting": "[5]; after 6 hours", "result": 3.5, "unit": "dose/% body/wt"}, {"measurement": "103Ru conc. lung", "setting": "[5]; after 1 hour", "result": 6, "unit": "dose/% body/wt"}, {"measurement": "103Ru conc. lung", "setting": "[5]; after 3 hours", "result": 2.6, "unit": "dose/% body/wt"}, {"measurement": "103Ru conc. lung", "setting": "[5]; after 6 hours", "result": 3.0, "unit": "dose/% body/wt"}]}
